Reference: ChEMBL document CHEMBL4811263, “Tulipiferamide A, an Alkamide from Liriodendron tulipifera, Exhibits an Anti-Inflammatory Effect via Targeting IKKβ Phosphorylation” (J Nat Prod, 2021)
Blank lines part the entries; values can stand above or below the molecule they belong to. Activity calls are given as the source filed them. The rule behind the calls is not given here.

What was measured:
RAW264.7 [1] = experiment: Antiinflammatory activity in mouse RAW264.7 assessed as inhibition of LPS-induced NO production preincubated for 30 mins followed by LPS stimulation measured after 24 hrs by Griess reagent based assay; type: functional, cell-based
[2] = Inhibition of LPS-indued NF-kappaB activation in mouse RAW264.7 cells preincubated for 30 mins followed by LPS stimulation and measured after 10 hrs by luciferase assay; type: cell-based
[3] = molecular target: T1, Inhibitor of nuclear factor kappa-B kinase subunit alpha (Mus musculus) (UniProt Q60680); experiment: Inhibition of IKKalpha mediated NF-kappaB activation in mouse RAW264.7 cells assessed as reduction in LIGHT-induced processing of p100 to p52 by Western blotting analysis; type: cell-based
T1 sequence (whole entry): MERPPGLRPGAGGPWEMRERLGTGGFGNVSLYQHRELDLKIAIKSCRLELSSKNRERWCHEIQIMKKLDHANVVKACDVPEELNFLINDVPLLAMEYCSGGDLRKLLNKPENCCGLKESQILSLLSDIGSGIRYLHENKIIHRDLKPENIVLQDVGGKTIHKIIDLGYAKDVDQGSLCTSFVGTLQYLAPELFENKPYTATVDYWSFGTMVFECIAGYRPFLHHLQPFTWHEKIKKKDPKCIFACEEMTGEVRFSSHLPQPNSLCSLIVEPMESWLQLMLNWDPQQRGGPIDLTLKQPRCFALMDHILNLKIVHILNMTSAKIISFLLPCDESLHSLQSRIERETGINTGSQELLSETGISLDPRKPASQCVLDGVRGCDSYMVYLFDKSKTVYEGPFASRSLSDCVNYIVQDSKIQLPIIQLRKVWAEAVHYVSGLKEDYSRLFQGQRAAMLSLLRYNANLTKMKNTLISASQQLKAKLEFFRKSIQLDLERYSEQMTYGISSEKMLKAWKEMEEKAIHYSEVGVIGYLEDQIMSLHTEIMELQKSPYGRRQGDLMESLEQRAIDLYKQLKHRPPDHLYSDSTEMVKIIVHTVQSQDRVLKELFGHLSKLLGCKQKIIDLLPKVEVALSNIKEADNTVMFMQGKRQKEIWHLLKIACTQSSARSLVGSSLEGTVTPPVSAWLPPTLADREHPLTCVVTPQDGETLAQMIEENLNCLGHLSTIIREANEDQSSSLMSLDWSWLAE

RAW264.7 [4] = experiment: Antiinflammatory activity in mouse RAW264.7 cells assessed as inhibition of LPS-induced COX-2 mRNA expression at 30 uM preincubated for 30 mins followed by LPS stimulation by RT-PCR analysis; type: functional, cell-based
RAW264.7 [5] = experiment: Inhibition of NF-kappaB activation in mouse RAW264.7 cells assessed as inhibition of LPS-induced relA phosphorylation at 30 uM preincubated for 30 mins followed by LPS stimulation by Western blotting analysis; type: cell-based
RAW264.7 [6] = experiment: Antiinflammatory activity in mouse RAW264.7 cells assessed as inhibition of LPS-induced TNFalpha mRNA expression at 30 uM preincubated for 30 mins followed by LPS stimulation by RT-PCR analysis; type: functional, cell-based
RAW264.7 [7] = experiment: Inhibition of MAPK in mouse RAW264.7 cells assessed as inhibition of LPS-induced ERK phosphorylation at 30 uM preincubated for 30 mins followed by LPS stimulation by Western blotting analysis; type: cell-based
[8] = molecular target: T2, Inhibitor of nuclear factor kappa-B kinase subunit beta (Mus musculus) (UniProt O88351); experiment: Inhibition of IKKbeta mediated NF-kappaB activation in mouse RAW264.7 cells assessed as inhibition of TWEAK-induced p65 phosphorylation on serine 536 by Western blotting analysis; type: cell-based
T2 sequence (whole entry): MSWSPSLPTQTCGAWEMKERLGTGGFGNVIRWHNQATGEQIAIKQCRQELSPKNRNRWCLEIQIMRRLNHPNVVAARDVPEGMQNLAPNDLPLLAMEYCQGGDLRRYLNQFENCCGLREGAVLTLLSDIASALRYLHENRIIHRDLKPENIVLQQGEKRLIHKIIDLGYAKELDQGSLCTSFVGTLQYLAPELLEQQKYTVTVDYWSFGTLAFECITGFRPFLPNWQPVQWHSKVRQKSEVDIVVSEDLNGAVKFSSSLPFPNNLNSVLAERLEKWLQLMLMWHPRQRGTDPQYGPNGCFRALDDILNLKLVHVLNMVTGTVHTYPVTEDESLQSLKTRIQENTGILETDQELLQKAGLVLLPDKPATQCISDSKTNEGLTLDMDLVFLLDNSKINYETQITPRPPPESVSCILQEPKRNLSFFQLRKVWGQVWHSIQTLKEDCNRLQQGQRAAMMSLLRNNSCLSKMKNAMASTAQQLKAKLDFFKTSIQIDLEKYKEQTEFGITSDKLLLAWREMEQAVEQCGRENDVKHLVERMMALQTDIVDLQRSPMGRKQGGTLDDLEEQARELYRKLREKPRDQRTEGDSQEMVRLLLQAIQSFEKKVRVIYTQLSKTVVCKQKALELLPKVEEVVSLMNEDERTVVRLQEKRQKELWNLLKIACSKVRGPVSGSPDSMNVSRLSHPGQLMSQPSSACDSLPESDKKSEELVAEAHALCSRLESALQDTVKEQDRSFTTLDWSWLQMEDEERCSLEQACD

RAW264.7 [9] = experiment: Antiinflammatory activity in mouse RAW264.7 cells assessed as inhibition of LPS-induced iNOS mRNA expression at 30 uM preincubated for 30 mins followed by LPS stimulation by RT-PCR analysis; type: functional, cell-based
RAW264.7 [10] = experiment: Antiinflammatory activity in mouse RAW264.7 cells assessed as inhibition of LPS-induced IL-1beta mRNA expression at 30 uM preincubated for 30 mins followed by LPS stimulation by RT-PCR analysis; type: functional, cell-based
RAW264.7 [11] = experiment: Inhibition of NF-kappaB activation in mouse RAW264.7 cells assessed as inhibition of LPS-induced IKKbeta phosphorylation at 30 uM preincubated for 30 mins followed by LPS stimulation by Western blotting analysis; type: cell-based
RAW264.7 [12] = experiment: Inhibition of MAPK in mouse RAW264.7 cells assessed as inhibition of LPS-induced JNK phosphorylation at 30 uM preincubated for 30 mins followed by LPS stimulation by Western blotting analysis; type: cell-based
RAW264.7 [13] = experiment: Antiinflammatory activity in mouse RAW264.7 cells assessed as inhibition of LPS-induced iNOS protein expression at 30 uM preincubated for 30 mins followed by LPS stimulation by Western blot analysis; type: functional, cell-based
RAW264.7 [14] = experiment: Inhibition of MAPK in mouse RAW264.7 cells assessed as inhibition of LPS-induced p38 phosphorylation at 30 uM preincubated for 30 mins followed by LPS stimulation by Western blotting analysis; type: cell-based
RAW264.7 [15] = experiment: Inhibition of NF-kappaB activation in mouse RAW264.7 cells assessed as inhibition of LPS-induced IkappaBalpha phosphorylation at 30 uM preincubated for 30 mins followed by LPS stimulation by Western blotting analysis; type: cell-based
[16] = molecular target: T1, Inhibitor of nuclear factor kappa-B kinase subunit alpha (Mus musculus); experiment: Inhibition of IKKalpha mediated NF-kappaB activation in mouse RAW264.7 cells assessed as TWEAK-induced degradation of TRAF2 by Western blotting analysis; type: cell-based
RAW264.7 [17] = experiment: Antiinflammatory activity in mouse RAW264.7 cells assessed as inhibition of LPS-induced IL-1beta protein expression at 30 uM preincubated for 30 mins followed by LPS stimulation by Western blot analysis; type: functional, cell-based
[18] = molecular target: T1, Inhibitor of nuclear factor kappa-B kinase subunit alpha (Mus musculus); experiment: Inhibition of IKKalpha mediated NF-kappaB activation in mouse RAW264.7 cells assessed as TWEAK-induced degradation of TRAF3 by Western blotting analysis; type: cell-based
RAW264.7 [19] = experiment: Antiinflammatory activity in mouse RAW264.7 cells assessed as inhibition of LPS-induced IL6 mRNA expression at 30 uM preincubated for 30 mins followed by LPS stimulation by RT-PCR analysis; type: functional, cell-based
[20] = molecular target: T1, Inhibitor of nuclear factor kappa-B kinase subunit alpha (Mus musculus); experiment: Inhibition of IKKalpha mediated NF-kappaB activation in mouse RAW264.7 cells assessed as reduction TWEAK-induced processing of p100 to p52 by Western blotting analysis; type: cell-based
HEK293 = experiment: Inhibition of IKK phosphorylation in HEK293 cells transfected with IKKbeta by Western blotting analysis; type: cell-based; conditions: Homo sapiens
RAW264.7 [21] = experiment: Inhibition of NF-kappaB activation in mouse RAW264.7 cells assessed as inhibition of LPS-induced IKKalpha phosphorylation at 30 uM preincubated for 30 mins followed by LPS stimulation by Western blotting analysis; type: cell-based
RAW264.7 [22] = experiment: Antiinflammatory activity in mouse RAW264.7 cells assessed as inhibition of LPS-induced COX-2 protein expression at 30 uM preincubated for 30 mins followed by LPS stimulation by Western blot analysis; type: functional, cell-based

IC50 (RAW264.7 [1]): > 50 µM
Compound: COc1cc([C@H]2Oc3c(OC)cc(CCCO)cc3[C@@H]2CO)ccc1O [DIHYDRODEHYDRODICONIFERY ALCOHOL]

IC50 [2]: 17.8 µM
IC50 (RAW264.7 [1]): 6.4 µM
Compound: COc1cc2ccnc3c2c(c1OC)-c1ccccc1C3=O [LYSICAMINE]

IC50 (RAW264.7 [1]): > 50 µM
Compound: C=CCc1cc(OC)c(O[C@H](C)Cc2cc(OC)c3c(c2)OCO3)c(OC)c1

Compound: O=C1c2ccccc2-c2c3c(cc4ccnc1c24)OCO3 [LIRIODENINE]
IC50 (RAW264.7 [1]): 10.5 µM

IC50 (RAW264.7 [1]): > 50 µM
Compound: CCCCC/C=C\CCC(=O)NCCc1ccccc1

IC50 (RAW264.7 [1]): > 50 µM
Compound: COc1c(OC)c2c3c(nccc3c1OC)C(=O)c1ccccc1-2 [HOMOMOSCHATOLINE]

IC50 (RAW264.7 [1]): > 50 µM
Compound: COc1cc2c3c(c1OC)-c1ccccc1C[C@H]3N(C(C)=O)CC2

IC50 (RAW264.7 [1]): > 50 µM
Compound: C=CCc1cc(OC)c(O)c(OC)c1 [METHOXYEUGENOL]

inhibition [3]: inactive
inhibition [8]: Active
IC50 [2]: 21.6 µM
IC50 (RAW264.7 [1]): 13.3 µM
inhibition [16]: inactive
inhibition [18]: inactive
inhibition [20]: inactive
Compound: CCCCC/C=C\C=C\C(=O)NCCc1ccccc1
Activity (RAW264.7 [4]): Active
inhibition (RAW264.7 [5]): Active
Activity (RAW264.7 [6]): Active
inhibition (RAW264.7 [7]): inactive
Activity (RAW264.7 [9]): Active
Activity (RAW264.7 [10]): Active
inhibition (RAW264.7 [11]): Active
inhibition (RAW264.7 [12]): inactive
Activity (RAW264.7 [13]): Active
inhibition (RAW264.7 [14]): inactive
inhibition (RAW264.7 [15]): Active
Activity (RAW264.7 [17]): Active
Activity (RAW264.7 [19]): Active
inhibition (HEK293): Active
inhibition (RAW264.7 [21]): Active
Activity (RAW264.7 [22]): Active

IC50 [2]: 28.5 µM
IC50 (RAW264.7 [1]): 34.2 µM
Compound: COc1c(OC)c2c3c(nccc3c1OC)C(=O)c1cc3c(cc1-2)OCO3 [OXOPHOEBINE]

IC50 (RAW264.7 [1]): > 50 µM
Compound: COc1cc2c(cc1OC)-c1c(OC)c(OC)cc3ccnc(c13)C2=O [OXOGLAUCINE]

IC50 (RAW264.7 [1]): > 50 µM
Compound: COc1cc(C[C@H]2CO[C@H](c3ccc(O)c(OC)c3)[C@H]2CO)ccc1O [LARICIRESINOL]

IC50 (RAW264.7 [1]): > 50 µM
Compound: COc1cc2oc(=O)ccc2c(OC)c1OC [5,6,7-TRIMETHOXYCOUMARIN]

IC50 (RAW264.7 [1]): > 50 µM
Compound: COc1cc(/C=C/C(=O)NCCc2ccc(O)c(OC)c2)ccc1O

IC50 [2]: 15.5 µM
IC50 (RAW264.7 [1]): 21.6 µM
Compound: COc1cc(O)c2c(c1)O[C@H](c1ccc(O)cc1)CC2=O [SAKURANETIN]

IC50 [2]: 0.022 µM
Compound: NC(=O)Nc1sc(-c2ccc(F)cc2)cc1C(N)=O

IC50 (RAW264.7 [1]): > 50 µM
Compound: COc1cc(/C=C/C(=O)NCCc2ccc(O)cc2)ccc1O [N-TRANS-FERULOYL TYRAMINE]
